Measurements as given in article PMC10287695, “Non-covalent inhibitors of thioredoxin glutathione reductase with schistosomicidal activity in vivo” (Nature Communications, 2023).
Where two headings read alike, the source gives them in different places.

Experiments:
Format in all cases: cell-based
S. mansoni adult worms [1] = assay: GSH/GSSG ratio in ex vivo adult worms; conditions: first data set (r117-133); for Ratio GSH/GSSG: baseline 55.82; for % Ratio GSH/GSSG: baseline = 100
S. mansoni adult worms [2] = assay: Schistosomicidal activity ex vivo, adult worms (Cell Titer Glo), alone or with channel blockers; conditions: for LD50 ex vivo S. mansoni adult: 24 h exposure, compound alone; for viability at 5 µM / viability at 15 µM / viability at 30 µM / viability at 50 µM: Schistosoma mansoni
Method: Three-week old, female Swiss-Webster mice obtained from the Charles River were housed in the Comparative Research Center of Rush University Medical Center. Mice were infected by percutaneous tail exposure to about 200 S. mansoni or 50 S. japonicum cercaria for adult worms and about 1000 cercaria for juvenile S. mansoni worms through natural transdermal penetration of the cercariae for 1 h[81].
DMSO formulated compounds were diluted with phenol red free M199 medium or RPMI medium for NTS or juvenile and adult worms, respectively, at <1% DMSO final concentrations. NTS, juvenile and adult worms from overnight cultures were tested against compounds in triplicate. Controls were treated with DMSO alone or 5 µM AF as a positive control in appropriate medium. […] Schistosome viabilities in the presence of the compounds were assessed using this formula: % Viability = Averages of Test / Averages of DMSO Control x 100.

[3] = test system: S. mansoni newly transformed schistosomula (NTS); assay: Schistosomicidal activity ex vivo, NTS (Cell Titer Glo); conditions: for LD50 ex vivo S. mansoni NTS: 24 h exposure, Cell TiterGlo; for viability at 0.5 µM / viability at 1 µM / viability at 5 µM / viability at 10 µM / viability at 20 µM / viability at 30 µM: Schistosoma mansoni
Procedure, shortened: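 NTS (240/well) in M199 with 5.5 mM D-glucose and 5% heat-inactivated FBS exposed to compounds in triplicate at <1% DMSO, 37 °C, 5% CO2. Viability from worm ATP by Cell Titer Glo at 24 or 72 h, as % of DMSO control; 5 µM AF positive control.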

| Structure (SMILES) | Ratio GSH/GSSG (S. mansoni adult worms [1]; 1 hr) | % Ratio GSH/GSSG (S. mansoni adult worms [1]; 1 hr) [%] | Ratio GSH/GSSG (S. mansoni adult worms [1]; 3 hr) | % Ratio GSH/GSSG (S. mansoni adult worms [1]; 3 hr) [%] | LD50 ex vivo S. mansoni adult (S. mansoni adult worms [2]) [µM] | viability at 5 µM (S. mansoni adult worms [2]) [%] | viability at 15 µM (S. mansoni adult worms [2]) [%] | viability at 30 µM (S. mansoni adult worms [2]) [%] | viability at 50 µM (S. mansoni adult worms [2]) [%] | LD50 ex vivo S. mansoni NTS [3] [µM] | viability at 20 µM [3] [%] | other results |
| --- | --- | --- | --- | --- | --- | --- | --- | --- | --- | --- | --- | --- |
| C[C@@H]1N=C(c2ccccc2Cl)c2cc([N+](=O)[O-])ccc2NC1=O [MZM, meclonazepam, reference compound] | 55.11 | 98.7253 | 55.10 | 98.7201 | 26.9 ± 0.97 | 91.9 | 69.8 | 48.7 | 31.3 | 13.7 ± 0.87 | 43.9 | viability at 0.5 µM [3]: 93.3%; viability at 1 µM [3]: 87.2%; viability at 5 µM [3]: 64.8%; viability at 10 µM [3]: 57.8%; viability at 30 µM [3]: 35.2% |
| O=C(C1CCCCC1)N1CC(=O)N2CCc3ccccc3C2C1 (centres unmarked) [PZQ, praziquantel] | 55.34 | 99.1418 | 55.09 | 98.6979 | 32.8 ± 4.07 | 95.6 | 75.1 | 54.8 | 35.2 | 27.1 ± 2.27 | 58.2 | viability at 0.5 µM ([3]; S. mansoni NTS, Conc. 0.5 µM, read-out: % viability): 94.3%; viability at 1 µM ([3]; S. mansoni NTS, Conc. 1 µM, read-out: % viability): 91.8%; viability at 5 µM ([3]; S. mansoni NTS, Conc. 5 µM, read-out: % viability): 85.6%; viability at 10 µM ([3]; S. mansoni NTS, Conc. 10 µM, read-out: % viability): 71.9%; viability at 30 µM ([3]; S. mansoni NTS, Conc. 30 µM, read-out: % viability): 35.8% |
